Peptide text beside a SMILES is read from it.
Target: Pseudomonas aeruginosa Elastase (LasB) (Pseudomonas aeruginosa, UniProt P14756)
Conditions: fluorescamine assay; 125 μL 1 mM peptide + 125 μL buffer with 15 μg LasB; 25 mM Na2B4O7 pH 8.0, 10 mM CaCl2; 37 °C, 4 h; fluorescence ex 355/em 460 nm; normalised to P5 = 100%; n=3
Protocol: P5’s sequence should be formed following LasB‐mediated hydrolysis of the −GLAE− sequence, present in all the peptides reported.
One‐way ANOVA, followed by Tukey's test (CI=95%,) was used to test for significance. Statistical significance was determined ‘n/s’=not significant, *** p<0.001.
Stock solutions of peptide (1 mM) or succinyl casein (0.5 mg/mL) were prepared in 25 mM Na2B4O7 buffer at pH 8.0 with 10 mM CaCl2 and 10% v/v DMSO. 125 μL of these substrate solutions were added to a 96‐well black‐walled microplate and mixed with 125 μL of the same buffer without DMSO, containing 15 μg of enzyme (LasB or HLE). Solutions of enzymes and substrates alone were prepared as controls. Every sample was prepared in triplicate. The microplate was incubated at 37 °C for 4 hours under orbital shaking. After 4 hours, 50 μL of 0.1 M EDTA in water at pH 8.0 were added to each well to quench all enzymatic activity. Then, each sample was mixed in a 1 : 1 volume ratio with a 1 mM solution of fluorescamine19 in methanol. […] After this time, fluorescence was measured exciting at 355 nm and reading the emission at 460±10 nm. […]
fluorescence is related to the elastase-mediated hydrolysis of the peptides. […]
of the elastases and the fluorescence observed is represented by black bars . […]
peptides,[4] was incubated in the absence of elastase and the fluorescence obtained was associated

Chain of Pseudomonas aeruginosa Elastase (LasB) (P14756 198-498): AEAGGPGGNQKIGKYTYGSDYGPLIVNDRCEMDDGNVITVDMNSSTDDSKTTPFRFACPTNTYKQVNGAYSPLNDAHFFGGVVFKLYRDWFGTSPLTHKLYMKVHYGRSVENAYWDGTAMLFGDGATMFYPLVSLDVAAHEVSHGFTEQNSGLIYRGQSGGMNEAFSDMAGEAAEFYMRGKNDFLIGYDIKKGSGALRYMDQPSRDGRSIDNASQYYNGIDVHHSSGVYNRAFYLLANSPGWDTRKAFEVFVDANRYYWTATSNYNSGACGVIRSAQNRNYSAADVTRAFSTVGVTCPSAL

| Compound | susceptibility to LasB hydrolysis (relative amine content) |
| --- | --- |
| CC(=O)N[C@@H](CS)C(=O)N[C@@H](CCC(=O)O)C(=O)N[C@@H](CCC(=O)O)C(=O)N[C@@H](CCC(=O)O)C(=O)NCC(=O)N[C@@H](CC(C)C)C(=O)N[C@@H](C)C(=O)N[C@@H](CCC(=O)O)C(=O)N[C@@H](CCC(=O)O)C(=O)N[C@@H](CCC(=O)O)C(=O)N[C@@H](CS)C(=O)O [P3SH] (Ac-CEEEGLAEEEC-OH) | highest susceptibility |
| CC(=O)N[C@@H](CS)C(=O)N[C@@H](CCC(=O)O)C(=O)N[C@@H](CCC(=O)O)C(=O)NCC(=O)N[C@@H](CC(C)C)C(=O)N[C@@H](C)C(=O)N[C@@H](CCC(=O)O)C(=O)N[C@@H](CCC(=O)O)C(=O)N[C@@H](CS)C(=O)O [P2SH] (Ac-CEEGLAEEC-OH) | least active |

— PMC6146907, “Structural Determinants of the Stability of Enzyme‐Responsive Polyion Complex Nanoparticles Targeting Pseudomonas aeruginosa’s Elastase” (Chemnanomat, 2018)
